Test results reported in patent US20040072750A1, “Compounds and methods for the modulation of CD154” (priority 2001, published 2004).
Bridge positions count the residues as written; N and C are the ends. Square brackets hold non-standard residues; d marks the D form. Peptide text beside a SMILES is read from it. hArg = N=C(N)NCCCC[C@H](N)C(=O)O; Mpa = O=C(O)CCS

Tests used:
platelets [1] = assay: Platelet function (Accumetrics RPFA) in patients undergoing PCI; format: in vivo, human; conditions: 10 minutes post final bolus
Description: (§1) Patients (n=45) undergoing PCI were enrolled. The study was approved by the IRB and all patients signed informed consent. Exclusion criteria included higher risk clinical scenarios mandating, according to institutional clinical practice, the use of GP IIb/IIIa antagonists (i.e., acute ST elevation MI or non q-wave MI with CPK elevation, pain at rest with EKG changes <24 hours, visible thrombus, pain refractory to heparin), pre-procedural GP IIb/IIIa inhibitor treatment, restenotic and graft lesions, and standard conditions excluding GP IIb/IIIa inhibitor use.
(§2) All patients received aspirin and intravenous heparin (50-70U/kg) monitored by activated clotting time (ACT) during the procedure. Patients were administered either no GP IIb/IIIa inhibitor, eptifibatide (180 μg/kg double bolus followed by 2 μg/kg/min for 16 h), or abciximab (0.25 mg/kg bolus intravenously followed by 0.125 μg/kg/min for 12 h) at the discretion of the primary operator. Platelet function was monitored using PPACK-anticoagulated blood and the Accumetrics RPFA device at baseline and 10 min post-final bolus. Interventionalists were blinded to RPFA results and not permitted to modify GP IIb-IIIa inhibitor dosing. Post-PCI, patients received clopidogrel (300 mg PO) followed by 75 mg daily.

[2] = Plasma inflammatory markers after PCI (ELISA); format: in vivo, human
Description: as §1, §2
Venous blood samples were collected prior to (t=0) and at 30 minutes, 2 hours, and 24 hours after the angioplasty wire was advanced across the lesion. Blood was collected into 10 mL tubes with either EDTA (for sCD 154 analysis) or PPACK (for all other analyses) anticoagulant, centrifuged at 4° C., and stored at −80° C. until analysis.
Inflammatory markers in plasma samples were quantified by commercially available ELISA for sCD154 (Alexis BioChemical) with modification (12), RANTES, IL6, sICAM-1 (BioSource), and CRP (Alpha Diagnostic International).
Primary endpoint data are presented as mean±SE. Data were log transformed to achieve a normal distribution verified by Kolmogorov-Smirnov test for normality. Statistical comparisons were performed using two-way ANOVA to determine a difference in mean values over time between the 3 groups. Pair-wise comparisons were performed when the ANOVA false-positive rate was ≦5%. A Bonferroni corrective for 3 pair-wise comparisons was applied, in which the p-value of […] was used to signify a false-positive rate of 5%. For ANOVA with a false-positive rate of ≧5%, the pair-wise comparisons were reported to be statistically nonsignificant (NS). Baseline and procedural characteristics data were analyzed with standard one way ANOVA for continuous data in more than 3 groups and a student's t-test for comparison of 2 groups. A Mann-Whitney Rank Sum test was used for nominal data. Statistical significance was assumed if the false positive rate was ≦5%.

platelets [3] = assay: Release of sCD154 from stimulated platelets in platelet-rich plasma (ELISA); format: cell-based, human; conditions: unstirred, FIG. 12B
[4] = tested on: Human umbilical vein endothelial cells (HUVECS); assay: Inflammatory response of endothelial cells to rsCD154 (MCP-1 ELISA, tissue factor clotting assay, ICAM-1/E-Selectin FACS); format: cell-based
Description: Inflammation in the present invention study was measured by the upregulation of tissue factor on cultured endothelial cells. Endothelial cells were the cells selected for study as this is the most abundant cell exposed to blood and is known to express […], the ligand for CD154 (Yellin, MJ, J. Exp Med, 182: 1857(1995)).
Human umbilical vein endothelial cells (HUVECS) purchased from Clonetics Inc. were cultured with M199 containing 20% FBS, 50 μg/ml endothelial mitogen (Biomedical technologies Inc.) 2 mM glutamine, 1 mM Sodium Pyruvate, 1× Nonessential amino acids, 100 U/ml of penicillin/streptomycin and 100 μg/ml heparin. HUVECS (passage 3-5) grown in 6 well dishes or 96 well tissue culture plates coated with 0.75% bovine skin gelatin (Sigma chemicals) were incubated without and with different concentrations (100 ng-10 μg/ml) of rsCD 154 in the presence of TRAP-1 (monoclonal antibody against hCD154, BD Pharmingen) or MOPC-21 (mouse IgG, Sigma) for 4 hrs at 37° C. in Tyrode's-Hepes buffer (12 mM NaHCO3, 138 mM NaCl, 5.5 mM glucose, 2.9 mM KCl, 10 mM Hepes, 1 mM CaCl2, 1 mM MgCl2, pH 7.4). […]
The supernatants were collected and the concentrations of MCP-1 determined by ELISA. Expression of tissue factor was determined by clotting assays performed with the HUVECS in the 96 well plates. […] The expression of ICAM-1 and E-Selectin was determined by FACS analysis (FACSort, Beckton Dickinson) following release of the HUVECS from the dishes. HUVECS, when exposed to 2 μg/ml rsCD154, secreted 3 fold more MCP-1 after 4 hrs and this increase was blocked by anti-CD154 antibody, but not by an isotype matched control antibody. As measured by clotting assay there was 50% reduction in clotting time, which was reversed in the presence of TRAP-1.

Row | Molecule | Platelet inhibition (% inhibition) (platelets [1]) [%] | rise of sICAM-1 and IL-6 after PCI ([2]; 2-24 hours after PCI, not statistically significant) | plasma sCD154 levels after PCI ([2]; 30 minutes, 2 hours, 24 hours versus baseline) | plasma RANTES levels after PCI ([2]; versus baseline) | sCD154 shedding from TRAP-activated platelets without aggregation (platelets [3]) | increased expression of ICAM-1 and E-Selectin ([4]; 2 μg/ml of rsCD154, FACS) [fold] | MCP-1 secretion by HUVECS ([4]; 2 μg/ml rsCD154, 4 hrs) [fold] | reduction in clotting time (tissue factor clotting assay) ([4]; HUVECS exposed to rsCD154) [%]
1 | N=C(N)NCCCC[C@@H]1NC(=O)CCSSC[C@@H](C(N)=O)NC(=O)[C@@H]2CCCN2C(=O)[C@H](Cc2c[nH]c3ccccc23)NC(=O)[C@H](CC(=O)O)NC(=O)CNC1=O [eptifibatide] ([Mpa][hArg]GDWPC-NH2; disulfide 1-7) | 98±3 | lowest level of rise | significantly lower than baseline | significant reductions | inhibited |  |  | 
2 | rsCD154: bacterially expressed recombinant human soluble CD154 (108 a.a-261 a.a.), 18-kDa protein (protein) ENSFEMQKGDQNPQIAAHVISEASSKTTSVLQWAEKGYYTMSNNLVTLENGKQLTVKRQGLYYIYAQVTFCSNREASSQAPFIASLCLKSPGRFERILLRAANTHSSAKPCGQQSIHLGGVFELQPGASVFVNVTDPSQVSHGTGFTSFGLLKL |  |  |  |  |  | 2 | 3 | 50
